The test system of series [1] is Phytophthora infestans (Plant affected: tomato). It counts as in vivo. Conditions: concentration at which an efficacy of 50% was achieved, protective.
Series [2] deals with farnesyl-pyrophosphate synthase (Saccharomyces cerevisiae, UniProt P08524). The experiment in a line: farnesyl-pyrophosphate synthase inhibition assay (coupled assay, malachite green, 384-well MTP). Conditions: read-out: p150 (converted). It counts as biochemical. An excerpt: A preferred method exploits the fact that two pyrophosphate molecules are liberated in the farnesyl-pyrophosphate synthase reaction. The activity, or the decrease or increase in activity, of the polypeptide according to the invention can thus be determined by enzymatically cleaving the pyrophosphate by means of inorganic pyrophosphatase and subsequently detecting the orthophosphate which has been liberated, using a phosphate detection reagent. The lower, or inhibited, activity of the polypeptide according to the invention is monitored with reference to the photospectrometric determination of the decrease or increase, of the orthophosphate which has been liberated. The concentration of phosphate which has been liberated can then be determined with a phosphate detection reagent at an absorption maximum at 620 nm.
The measurement can also be carried out in formats conventionally used for HTS or UHTS assays, for example in microtitre plates, into which for example a total volume of 5 to 50 μl is introduced per reaction or per well and the individual components are present in one of the above-stated final concentrations (cf. Example 2). […] The polypeptide according to the invention is then added in the abovementioned assay buffer containing the auxiliary enzyme inorganic pyrophosphatase, which is required for the coupled assay, thus starting the reaction. The mixture is then incubated for example for up to 40 minutes at a suitable temperature, and the increase in absorption is measured at 620 nm.
A further measurement is carried out in a corresponding mixture, but without addition of a candidate molecule and without addition of a polypeptide according to the invention (negative control). Another measurement, in turn, is carried out in the absence of a candidate molecule, but in the presence of the polypeptide according to the invention (positive control). The negative and the positive controls thus provide the reference values for the mixtures in the presence of a candidate molecule.
A pI50 value of 8, for example, corresponds to half the maximum inhibition of the enzyme at a concentration of 10 nM.
384-well microtitre plates from Greiner were used for identifying farnesyl-pyrophosphate synthase modulators.
The negative control was pipetted into the first column.
The positive control was pipetted into the second column.
A test substance in a concentration of 2 μM in DMSO was introduced into the remaining columns, 5 μl of the assay buffer being used for diluting the substance to a volume of. […] This was followed by incubation at room temperature for 40 minutes. The reaction was subsequently quenched by addition of 50 μl of malachite green solution (three parts of 0.025% malachite green solution (in water) were mixed with one part of 2% ammonium heptamolybdate solution (in 4 M HCl) and 39 parts of this solution were mixed with one part of 7.5% Tween 20 (in water) immediately prior to testing) and the mixture was incubated for 90 minutes at room temperature. The orthophosphate generated during the reaction was measured by determining the absorption at 620 nm in a Tecan […]luor Plus suitable for MTPs.

Series [3] concerns Phytophthora infestans (Plant affected: barley). It is filed as in vivo. Conditions: concentration at which an efficacy of 50% was achieved, protective.
For series [4], the system named is Pyricularia oryzae (plant affected: rice). It is filed as in vivo. Conditions: concentration for 50% efficacy, protective.
Series [5] relates to Sphaerotheca fuliginea (plant affected: cucumber). Kind of series: protective action for plants (spray, inoculation). It counts as in vivo. Conditions: concentration for 50% efficacy. The procedure:
(§1) The effect, on fungi, of compounds found with the aid of a method according to the invention can also be assayed by testing their protective action for plants. To this end a suitable active substance preparation is prepared. For example 1 part by weight of active substance is mixed with, for example, 24.5 parts by weight of acetone and 24.5 parts by weight of dimethylformamide and 1 part by weight of alkylaryl polyglycol ether as emulsifier, and the concentrate is diluted to the desired concentration.
(§2) To test for protective action, young plants are sprayed with the active substance preparation. After the spray coating has dried on, the plants are inoculated with an aqueous suspension (conidia suspension) of a fungus and then remain for 1 day in an incubation chamber at approximately 20° C. and 100% relative atmospheric humidity.
(§3) The plants are then placed in a greenhouse at approx. 12° C. and a relative atmospheric humidity of approx. 90%.
(§4) The test is evaluated 1 to 12 days after the inoculation. 0% means an efficacy which corresponds to that of the control, while an efficacy of 100% means that no disease is observed.
(§5) The examples in question can be seen from the fact that an affected plant has been stated.

In series [6] the test system is Alternaria solani (plant affected: tomato). The experiment in a line: protective action for plants (spray, inoculation). It is filed as in vivo. Conditions: concentration for 50% efficacy. The procedure: as §1, §2, §3, §4, §5
The test system of series [7] is Erysiphe graminis (plant affected: barley). The experiment in a line: protective action for plants (spray, inoculation). It counts as in vivo. Conditions: concentration for 50% efficacy. The procedure:
as §1, §2, §3, §4, §5

The test system of series [8] is Leptosphaeria nodorum (plant affected: wheat). The experiment in a line: protective action for plants (spray, inoculation). Conditions: concentration for 50% efficacy. It counts as in vivo. The procedure: as §1, §2, §3, §4, §5
Series [9] deals with yeast farnesyl-pyrophosphate synthase (Saccharomyces cerevisiae, UniProt P08524). Conditions: substrate of yeast farnesyl-pyrophosphate synthase.
Substrate in series [10]: C=C(C)CCO[P@@](=O)(O)OP(=O)(O)O
Kind of series: purified protein, by the assay type. Particulars: other: substrate of yeast farnesyl-pyrophosphate synthase.

On to `CC(Oc1ccccc1)C(=O)Nc1cc(C(=O)N[C@@H](Cc2ccccc2)C(=O)O)ccc1N1CCN(C(c2ccccc2)c2ccccc2)CC1` (some centres unmarked) [Example 3], for which the ED50 in [1] and in series [3] was 500 ppm each time. Further, the IC50 in series [2] was 31.6 µM.

For `COc1ccc(CN(CC(C)(C)CN)C(=O)c2cccc(C)c2)cc1-c1ccc(N2CCC(Cc3ccccc3)CC2)c(NC(=O)c2cccs2)c1` [Example 5], the ED50 in [1], in series [4], in [5], in series [6], in series [7] and in series [8] was 548 ppm throughout. Further, in series [2], the IC50 was 25.1 µM.

For the molecule `CC(=O)Nc1nc(-c2ccccc2OCC(N)=O)cc(-c2cccc(NC(=O)c3ccc([N+](=O)[O-])cc3)c2)c1C#N` [Example 2], the IC50 in series [2] is 31.6 µM.

As to `CC(C)=CCOP(=O)(O)OP(=O)(O)O` [dimethylallyl pyrophosphate], the Km in series [9] was 36 µM.

`CC(C)(CN)CN(C(=O)c1cccs1)c1ccc(-c2ccc(N3CCN(c4ccccn4)CC3)c(NC(=O)CCC3CCCC3)c2)cc1` [Example 4]: the ED50 in series [1] and in [3] was 500 ppm each time. In addition, the IC50 in series [2] was 39.8 µM.

`CC(=O)[n+]1ccc(-c2cc[n+](C(C)=O)cc2)cc1` [Example 1]: the IC50 in series [2] was 7.41 µM.

B1: yeast farnesyl-pyrophosphate synthase (Saccharomyces cerevisiae S288C) (protein)
chain: MASEKEIRRERFLNVFPKLVEELNASLLAYGMPKEACDWYAHSLNYNTPGGKLNRGLSVVDTYAILSNKTVEQLGQEEYEKVAILGWCIELLQAYFLVADDMMDKSITRRGQPCWYKVPEVGEIAINDAFMLEAAIYKLLKSHFRNEKYYIDITELFHEVTFQTELGQLMDLITAPEDKVDLSKFSLKKHSFIVTFKTAYYSFYLPVALAMYVAGITDEKDLKQARDVLIPLGEYFQIQDDYLDCFGTPEQIGKIGTDIQDNKCSWVINKALELASAEQRKTLDENYGKKDSVAEAKCKKIFNDLKIEQLYHEYEESIAKDLKAKISQVDESRGFKADVLTAFLNKVYKRSK
In the case of B1, in [10], the Michaelis-Menten constant (Km) came to 49 µM.

The Km is the concentration of substrate that gives half-maximal velocity.

(Values after patent publication US20040219626A1, “Method for identifying fungicidally active compounds” (priority 2002, published 2004).)
